{
  "source": "paper PMC7689712",
  "about": "“Characterization of ancestral myosin XI from Marchantia polymorpha by heterologous expression in Arabidopsis thaliana” (The Plant Journal, 2020)",
  "biological_target": "T1, Mp myosin XI-MD (Marchantia polymorpha, UniProt H3JRT9)",
  "T1 construct": "gene MyoXI; motor domain, residues 1-738; N-terminal FLAG tag (MDYKDDDDKRSMNSRPA), C-terminal GGG-Myc-His8 tag",
  "T1 sequence (H3JRT9 1-738)": "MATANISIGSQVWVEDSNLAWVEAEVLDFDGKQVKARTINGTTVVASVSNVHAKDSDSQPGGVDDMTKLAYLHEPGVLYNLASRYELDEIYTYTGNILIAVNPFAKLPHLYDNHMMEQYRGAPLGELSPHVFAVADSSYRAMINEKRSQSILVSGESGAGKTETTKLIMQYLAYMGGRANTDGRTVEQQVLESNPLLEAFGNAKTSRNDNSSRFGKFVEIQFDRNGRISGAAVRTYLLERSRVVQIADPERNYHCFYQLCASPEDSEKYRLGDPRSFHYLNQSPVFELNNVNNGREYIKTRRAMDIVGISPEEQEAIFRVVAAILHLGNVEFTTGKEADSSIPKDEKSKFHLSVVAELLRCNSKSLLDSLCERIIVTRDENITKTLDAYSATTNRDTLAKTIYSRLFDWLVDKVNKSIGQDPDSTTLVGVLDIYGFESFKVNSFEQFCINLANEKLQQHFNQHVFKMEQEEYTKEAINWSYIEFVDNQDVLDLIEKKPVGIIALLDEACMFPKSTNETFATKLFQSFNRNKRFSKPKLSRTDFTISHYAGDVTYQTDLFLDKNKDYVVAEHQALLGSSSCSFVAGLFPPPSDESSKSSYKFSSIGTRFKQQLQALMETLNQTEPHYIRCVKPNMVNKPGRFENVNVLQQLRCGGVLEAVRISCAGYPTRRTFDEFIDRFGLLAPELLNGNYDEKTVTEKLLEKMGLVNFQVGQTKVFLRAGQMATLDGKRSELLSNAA",
  "experiment": "steady-state actin-activated Mg2+-ATPase assay",
  "type": "biochemical",
  "conditions": "F-actin varied, 25 °C",
  "data": [
    {"smiles": "Nc1ncnc2c1ncn2[C@@H]1O[C@H](COP(=O)(O)OP(=O)(O)OP(=O)(O)O)[C@@H](O)[C@H]1O", "note": "[ATP]", "values": [
      {"measurement": "steady-state actin-activated Mg2+-ATPase assay", "result": "we determined the maximum rate of ATP turnover (V max) and the actin concentration"}
    ]}
  ]
}
